# How the values were obtained:
# complement C3 = complement C3 (Homo sapiens, UniProt P01024); test: complement C3 inhibitory IC50 of SHA; assay type: biochemical
# [1] = Pharmacokinetics of SHA in blood and brain after i.p. injection; assay type: in vivo, Sprague-Dawley rats; conditions: 400 mg/kg i.p., rat
# Experimental: SHA (400 mg/kg) was injected intraperitoneally (i.p.) into Sprague-Dawley rats. At fixed time intervals after injection, blood samples were collected, and perfused brain was removed and homogenized. Acidified blood and brain samples were extracted in ethyl acetate. SHA was quantitated by reverse phase HPLC at 310 nm, and compared to known amounts of standards that had been added to blood or brain tissue as shown in FIG. 4.
# The time of SHA injection after the onset of ischemia or reperfusion can be systematically varied to determine other ranges in which therapeutic intervention is available using this drug.
# [2] = test system: mice subjected to middle cerebral artery occlusion; test: Middle cerebral artery (MCA) occlusion stroke model, infarct volume with SHA; assay type: in vivo, C57BL/6 mice; conditions: 400 mg/kg i.p. twice (at occlusion and 1.5 h later), sacrifice at 24 hours, mean±SEM, n=3
# Experimental: FIG. 5 is a graph depicting the infarct volume of C57BL/6 mice subjected to middle cerebral artery occlusion and treated with saline (Control, n=3) or SHA (SHA, n=3).
# SHA was tested for its ability to prevent cytotoxic damage by using the middle cerebral artery (MCA) occlusion stroke model (Longa et al., supra). Briefly, this system involves anesthetizing mice with isoflurane and then maintaining the body temperature of the mice at 36±1° C. A 6.0 monofilament nylon suture with silicone-coated tip was then advanced into the internal carotid artery about 9 mm via the external carotid artery. Immediately after the filament was secured, SHA (400 mg/kg i.p.) or vehicle (normal saline) was injected. At 1.5 hours after the first injection, a second i.p. injection was given to the animal. 2 hours later the animals were re-anesthetized and the filament was removed to allow reperfusion. Cerebral blood flow, blood pressure, blood gases, pH, and serum glucose were monitored in these studies. At 24 hours the animals were sacrificed, brains removed and 1 mm thick brain section are cut on a vibratome. The brain slices were stained with 2% triphenyltetrazolium choloride. The infarct volume was obtained as described in Swanson et al., supra with results being (mean+SEM, n=3 in each group) 62.6±34.2 mm^3 in the vehicle-treated group versus 6.1±6.0 mm^3 in the SHA-treated group.
# [3] = test system: mice subjected to middle cerebral artery occlusion; test: Intravenous injection of tPA into tPA-deficient or wild-type mice with intraluminal filament MCA occlusion; assay type: in vivo, mice (C57BL/6 or SV129)
# Experimental: Wild-type and tPA-deficient male mice (on C57Black/6 and SV129 backgrounds) weighing 23-27 grams were housed in a 12 hour light/dark cycle and permitted food and water intake ad libitum. Transient ischemia/reperfusion was performed using the intravascular filament model to occlude the middle cerebral artery unilaterally for 2 or 3 hours followed by reperfusion for the remainder of the 24 hour period as described in Longa et al., Stroke 20, 84-91 (1989) and Soriano. et al. Ann. Neurol. 39, 618-624 (1996). Briefly, under isoflurane anesthesia, a 6.0 nylon filament coated with silicone was threaded into the lumen of the middle cerebral artery of mice (C57Black/6 and SVI29 backgrounds) to produce transient ischemia. After 2 or 3 hours of occlusion, the filament was gently withdrawn to allow tissue reperfusion. Body temperature was maintained at 36.5±1.0° C. […] Animals were sacrificed 24 hours after the onset of the insult as described in Huang et al. Science 265, 1883-1885 (1994) and Soriano, supra. Infarct volumes were digitally quantified on 1.5 mm thick coronal sections after correction for edema by measuring TTC staining, as described in Soriano, supra, Bederson et al., Stroke 17,472-476 (1986); Swanson et al., J. Cereb. Blood Flow Metab. 10, 290-293 (1990), Lin et al., Stroke 24, 117-121 (1993); Zhang, et al., Neurology 44, 1747-1751 (1994); and Chopp et al. Stroke 25, 869-876 (1994)). Infarct volume decreased from 116±8 mm^3 in control wild-type mice to 69±7 mm^3 in tPA-deficient mice (mean±s.e.m., n=19 mice), as shown in FIG. 1. Under these conditions, there is no thrombosis at the occluded site, so the absence of tPA would not contribute to damage via an enhanced clotting cascade.
# To determine the effect of intravenous injection of tPA into tPA-deficient or wild-type mice (C57BL/6 or SV129), intravenous tPA was administered intravenously, 10% initially by bolus, followed by constant infusion over twenty to thirty minutes at 0.9-1.0 mg/kg (similar to rt-PA Stroke Study Group, N. EngL J. Med. 333, 1581-1587 (1995) and Hacke. et al. JAMA 274, 1017-1025 (1995). The formula for the carrier used to dilute tPA was obtained from the manufacturer (Genentech, San Francisco, Calif.) and was used as one of the control injections. The diluent consisted of 0.02 M arginine phosphate at pH 7.3 with 0.001% Tween. […] In wildtype, but not tPA deficient mice, ischemia induced an increase in tPA activity, as assessed by histological zymography. Briefly, wild-type or tPA deficient mice were subjected to 2 hours of focal ischemia. After 10 minutes of reperfusion, the animals were sacrificed and their brains frozen as described previously (Tsirka et al., Nature 377, 340-344 (1995)). Then, 12 μm consecutive coronal brain cryostat sections were subjected to histological zymography to visualize tPA activity with or without amiloride (1 mM, a specific urokinase [uPA] inhibitor) (Sappino et al J. Clin. Invest. 92, 679-685 (1993) and Rosenberg et al., Cereb. Blood Flow Metab. 16, 360-366 (1996)). The sections were overlaid with a milk-agarose substrate matrix containing 50 ug/ml of purified human plasminogen and 1 mg/ml amiloride. […]
# Regional cerebral blood flow was also monitored by the laser Doppler flowmetry technique as described in Dimagl et al J. Cereb. […] Briefly, the initial reading of regional Cerebral Blood Flow (rCBF) was assigned a value of 100% and subsequent readings were expressed relative to this value. […]
# complement C3, sequence (P01024 23-1663, species assumed): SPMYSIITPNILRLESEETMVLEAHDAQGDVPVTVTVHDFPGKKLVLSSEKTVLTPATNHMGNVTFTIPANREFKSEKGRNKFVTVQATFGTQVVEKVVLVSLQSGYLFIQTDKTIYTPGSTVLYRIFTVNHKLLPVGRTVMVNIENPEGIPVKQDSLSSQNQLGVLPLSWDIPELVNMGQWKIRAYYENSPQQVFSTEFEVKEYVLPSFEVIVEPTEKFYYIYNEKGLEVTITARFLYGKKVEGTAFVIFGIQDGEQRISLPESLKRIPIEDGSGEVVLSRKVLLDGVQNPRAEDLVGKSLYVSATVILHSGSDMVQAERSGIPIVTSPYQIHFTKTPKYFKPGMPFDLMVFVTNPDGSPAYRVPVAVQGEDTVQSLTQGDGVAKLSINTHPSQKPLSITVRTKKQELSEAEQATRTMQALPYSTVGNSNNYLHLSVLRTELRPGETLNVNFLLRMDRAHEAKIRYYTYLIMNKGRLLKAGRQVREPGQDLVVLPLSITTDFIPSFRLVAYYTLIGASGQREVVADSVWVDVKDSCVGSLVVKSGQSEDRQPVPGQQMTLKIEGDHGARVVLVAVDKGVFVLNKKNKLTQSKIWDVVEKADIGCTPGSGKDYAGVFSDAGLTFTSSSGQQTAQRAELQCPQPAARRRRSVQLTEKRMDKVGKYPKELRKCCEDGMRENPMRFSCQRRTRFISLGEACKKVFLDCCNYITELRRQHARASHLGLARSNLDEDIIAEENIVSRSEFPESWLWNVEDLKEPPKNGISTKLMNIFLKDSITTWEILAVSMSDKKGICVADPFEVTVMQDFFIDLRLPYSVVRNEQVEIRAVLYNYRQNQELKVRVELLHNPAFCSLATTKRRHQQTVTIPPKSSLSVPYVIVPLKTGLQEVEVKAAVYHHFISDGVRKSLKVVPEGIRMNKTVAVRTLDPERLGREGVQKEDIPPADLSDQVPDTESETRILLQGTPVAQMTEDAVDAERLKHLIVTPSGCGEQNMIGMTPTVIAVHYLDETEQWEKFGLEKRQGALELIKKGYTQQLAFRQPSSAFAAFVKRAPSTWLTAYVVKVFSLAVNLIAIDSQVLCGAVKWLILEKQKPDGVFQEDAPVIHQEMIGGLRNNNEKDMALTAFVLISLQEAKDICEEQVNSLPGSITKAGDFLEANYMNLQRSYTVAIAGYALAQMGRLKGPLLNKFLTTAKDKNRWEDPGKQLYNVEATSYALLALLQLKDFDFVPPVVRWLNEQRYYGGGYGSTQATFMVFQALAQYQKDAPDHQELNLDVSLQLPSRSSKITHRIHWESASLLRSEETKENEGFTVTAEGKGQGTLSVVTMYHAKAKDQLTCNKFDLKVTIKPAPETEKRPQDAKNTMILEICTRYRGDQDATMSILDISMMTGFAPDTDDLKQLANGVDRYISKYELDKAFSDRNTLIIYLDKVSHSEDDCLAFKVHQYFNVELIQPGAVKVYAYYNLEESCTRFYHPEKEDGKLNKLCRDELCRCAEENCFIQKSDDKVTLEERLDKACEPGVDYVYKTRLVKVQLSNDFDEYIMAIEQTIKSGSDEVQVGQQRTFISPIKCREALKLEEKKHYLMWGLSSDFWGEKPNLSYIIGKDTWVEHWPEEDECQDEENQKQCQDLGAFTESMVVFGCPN
Compound,IC50 (complement C3) [µM],"complement C3 inhibitory IC50, equivalent brain concentration (complement C3; equivalent of the IC50 expressed per g brain) [mg SHA/g brain]",ability to cross the blood-brain barrier ([1]; normal brain),time after injection during which SHA concentration in blood and brain exceeds the complement C3 IC50 ([1]; blood and brain) [h],time of peak concentration in blood and brain after drug administration ([1]; blood and brain),infarct volume [2] [mm^3],"hemorrhage or other bleeding diathesis at postmortem examination ([3]; tPA 0.9-1.0 mg/kg i.v., all animals)","entry of tPA activity into the brain (histological zymography) ([3]; tPA-deficient mice, intravenous exogenous tPA)","increase in size of cerebral infarction ([3]; tPA-deficient mice, tPA 0.9-1.0 mg/kg i.v.)","effect on size of the stroke with large cerebral infarcts ([3]; wild-type mice, 3 hours of vascular occlusion, versus control animals not receiving tPA)","increase in size of cerebral infarction ([3]; wild-type mice, tPA 0.9-1.0 mg/kg i.v., 2 hour occlusion)"
"O=C(NO)c1ccccc1O [SHA, salicylhydroxamic acid]",8.3,0.0013,able to cross the blood-brain barrier quite effectively,2,about 30 minutes,6.1±6.0,–,–,–,–,–
"tPA: serine protease tissue plasminogen activator, thrombolytic agent, commercially available from Genentech",–,–,–,–,–,–,No hemorrhage or other bleeding diathesis occurred,apparent entry of tPA activity into the brain,near doubling of the damage,did not enhance the size of the stroke,20-35%

# — patent publication US6503947B1, “Method of treating cytotoxic damage” (Brigham and Women's Hospital, priority 1998, dated 2003)
